{"source": "patent US8688427B2", "about": "“Enzyme catalysts for diels-alder reactions” (University of Washington, priority 2008, dated 2014)", "molecules": {"B1": {"name": "wild-type scaffold: diisopropylfluorophosphatase from Loligo vulgaris (PDB-ID 1E1A) (protein, listed as Loligo vulgaris)", "chain": "MEIPVIEPLFTKVTEDIPGAEGPVFDKNGDFYIVAPEVEVNGKPAGEILRIDLKTGKKTVICKPEVNGYGGIPAGCQCDRDANQLFVADMRLGLLVVQTDGTFEEIAKKDSEGRRMQGCNDCAFDYEGNLWITAPAGEVAPADYTRSMQEKFGSIYCFTTDGQMIQVDTAFQFPNGIAVRHMNDGRPYQLIVAETPTKKLWSYDIKGPAKIENKKVWGHIPGTHEGGADGMDFDEDNNLLVANWGSSHIEVFGPDGGQPKMRIRCPFEKPSNLHFKPQTKTIFVTEHENNAVWKFEWQRNGKKQYCETLKFGIF"}, "B2": {"name": "DA_20_00: original Diels-Alder enzyme design on diisopropylfluorophosphatase scaffold (PDB-ID 1E1A) (protein)", "chain": "MEIPVIEPLFTKVTEDIPGAAGPVFDKNGDFYIVAPYVEVNGKPAGEILRIDLKTGKKTVICKPEVNGYGGIPAGCQCDRDANQLFVADMRLGLLVVQTDGTFEEIAKKDSEGRRMQGCAYCAFDYEGNLWITAPAGEVAPADFTISLQEKFGSIYCFTTDGQMIQVDTAFQAPAGIAVRHMNDGRPYQLIVAEQPTKKLWSYDIKGPAKIENKKVWGHIPGTHKGGAAGMDFDEDNNLLVANWGSSHIEVFGPDGGQPKMRIRCPFEKPSALHFKPQTKTIFVTEHENNAVWKFEWQRNGKKQYCETLKFGIFGSLEHHHHHH", "modifications": "Enzyme catalyst for Diels-Alder reaction"}, "B3": {"name": "Q195E: DA_20_10 with glutamine 195 mutated into a glutamate (protein)", "chain": "B2 chain with Q195E"}, "B4": {"name": "DA_20_04: DA_20_00 triple mutant A21T, A74I, S271A (protein)", "chain": "B2 chain with A21T, A74I, S271A", "modifications": "Enzyme catalyst for Diels-Alder reaction", "notes": "DA_20_00 triple mutant A21T, A74I, S271A"}, "B5": {"name": "Y121F: DA_20_10 with tyrosine 121 mutated into a phenylalanine (protein)", "chain": "B2 chain with Y121F"}}, "key": {"[1]": {"tested_on": "catalytic antibody mAb 7D4", "conditions": "310K, cited from earlier work"}, "[2]": {"tested_on": "catalytic antibody mAb 4D5", "conditions": "310K, cited from earlier work"}, "[3]": {"tested_on": "Diels-Alderase DA_20_00, computational design on Loligo vulgaris diisopropylfluorophosphatase scaffold (PDB-ID 1E1A, SEQ ID NO:2), SEQ ID NO:4", "assay": "Kinetics of Diels-Alder reaction catalysed by original design DA_20_00", "format": "biochemical", "conditions": "298K, PBS, error = 95% confidence interval", "procedure": "(§1) The Diels-Alder reactions were performed in PBS, at 25° C., with 4% DMSO. The DMSO came from the diene, for which the stock solution (100 mM) was made in DMSO and always diluted such that the final reaction would contain 4% DMSO. After incubation of the desired amount of diene and dienophile in the presence or absence of the protein, time points were taken of the reaction (5 μL) and quenched in a solution of 80:20 acetonitrile:water with 0.1% formic acid and 1 mM Benzoic Acid (95 μL). This reaction was incubated for 5 minutes and then the precipitated protein filtered using a Millipore multiscreen solvinert filter plate (Product Number: MSRLN0450). 20 μL of the filtered quench solution was then injected and analyzed using a liquid chromatography-tandem mass spectroscopy (LC-MSMS) assay.\nThis active design (DA—20—00) was created from a 6-bladed beta barrel propeller scaffold (PDB-ID 1E1A; a diisopropylfluorophosphatase from Loligo vulgaris). […]\nThe errors represent the calculated 95% confidence interval. The parameter a describes the cooperativity of binding between the two substrates: a value greater than one indicates negative cooperativity, whereas a value lower then one indicates positive cooperativity. α could not be determined for DA—20—00. […]"}, "[4]": {"tested_on": "Diels-Alderase DA_20_10, variant of DA_20_00 (Loligo vulgaris diisopropylfluorophosphatase scaffold, SEQ ID NO:2) with A21T/A74I/S271A/A173C/Q149R/A272N, SEQ …", "assay": "Kinetics of Diels-Alder reaction catalysed by optimized DA_20_10", "format": "biochemical", "conditions": "298K", "procedure": "(A) Dependence of reaction velocity on diene concentration for different fixed dienophile concentrations. The diene concentration was varied from 3.0 to 0.18 mM with a fixed concentration of 100 mM (⋄), 66 mM (Δ), 44 mM (⋄), 30 mM (◯), 20 mM (◯), or 13 mM (●) dienophile (B) Dependence of reaction velocity on dienophile concentration for different fixed diene concentrations. The dienophile was varied from 100 to 13.0 mM with a fixed concentration of 3 mM (♦), 2 mM (▴), 1.3 mM (∇), 0.9 mM (Δ), 0.6 mM (⋄), 0.4 mM (□), 0.26 mM (◯), or 0.18 mM (●) […]. Reactions were carried out with 20 μM protein in PBS at 298 K.\nas §1\nTo summarize the optimization rounds, residues contacting the transition state in DA—20—00 were mutated individually to sets of residues predicted to retain or improve transition state binding and bolster the two catalytic residues. […] Three of the mutations (FIG. 6C) likely improve the packing around the transition state (A741, A21 T) or catalytic glutamine (A173C). Two of the mutations likely improve the overall electrostatic complementarity with the bound substrates and transition state: Q149R hydrogen bonds to the carboxylate on the diene and S271A makes the dienophile environment more non polar.\nThe kinetics of the DA—20—10 catalyzed reaction was characterized by measuring the dependence of the reaction velocity on the concentration of both diene and dienophile. The effective molarity (kcat/kuncat) of DA—20—10 is 100 M, and the rate enhancement (kcat/(kuncat*KM_diene)) in the presence of saturating dienophile and limiting diene is 1.0×10^5. At high substrate concentrations DA—20—10 proceeds for more than 30 turnovers before the enzyme loses activity. At higher enzyme concentrations more than 80% of the diene substrate is converted to product.\nThe errors represent the calculated 95% confidence interval. The parameter a describes the cooperativity of binding between the two substrates: a value greater than one indicates negative cooperativity, whereas a value lower then one indicates positive cooperativity. α could not be determined for DA—20—00. Kinetic parameters for catalytic antibodies 7D4 and 4D5 were taken from (10, 17)."}, "catalytic antibody 1E9": {"tested_on": "catalytic antibody 1E9", "conditions": "with N-ethyl maleimide as second substrate; cited from earlier work"}, "[5]": {"assay": "Production run and effects of knocking out the catalytic residues", "format": "biochemical", "conditions": "for decrease of catalytic activity on mutation of a catalytic residue of DA_20_10: relative to DA_20_10", "procedure": "The reaction was carried out in 1 mM diene, 50 mM dienophile, 200 μM enzyme, in PBS at 298K. The proteins assayed are DA—20—10 (υ), Y121F (▴), Q195E (x), and tela scaffold (*), uncatalyzed (λ).\nTo determine whether the observed activity depends on the designed active site, we investigated the contributions of the designed catalytic residues in DA—20—10 to catalysis. Glutamine 195 was mutated into a glutamate (Q195E) and tyrosine 121 was mutated into a phenylalanine (Y121F). We had originally incorporated a glutamine rather than a glutamate at this position, despite the fact that the carboxylate should make a stronger hydrogen bond with the diene carbamate. This hydrogen bond should increase the energy of the diene HOMO (and thus decrease the energy gap with the dienophile LUMO), and more greatly stabilize the transition state. However, we were concerned that the substantial free energy cost of desolvating the carboxylate would considerably reduce binding affinity for the diene. […] The Y121F mutation decreases catalytic activity by 27-fold, consistent with the removal of a hydrogen bond that contributes to dienophile binding, stabilizes the dienophile LUMO, and is enhanced in the transition state.\nTimepoints were taken and measured as previously described over a period of 60 hours."}, "[6]": {"assay": "Diels-Alder activity assay with purified protein, LC-MSMS product detection", "format": "biochemical", "conditions": "PBS", "procedure": "The observed velocity for each mutant was normalized by the velocity of DA—20—00 in order to determine the effective rate enhancement conferred by each mutation. The reactions were done at 1 mM diene, and 10 mM dienophile, PBS, 298K, and 100 μM protein.\nMutations showing enhanced activity on DA—20—04 were sequenced, grown large scale, and assayed. The assay was done at 0.1 mM dieine, 3 mM dienophile, PBS, 298K, and 20 μM protein.\nas §1\nA total of 43 variants were assayed using the standard activity assay. The observed activities are described in Table 2. In Table 2, the Expression column provides the number of times the mutant was expressed; the Observed column reports the raw signal level out of the mass-spec for the product (the Observed column is not normalized nor background corrected); the Concentration column provides the concentration of the protein after large-scale expression. […]"}, "[7]": {"assay": "Plate assay of crude cell lysate, second round of active site optimization", "format": "biochemical", "conditions": "Mutations Recombined; single mutations on DA_20_04; Neg_Control 0, Pos_Control 1", "procedure": "Since it was unreasonable to prepare the 176 enzyme variants in large scale, a plate assay was developed in which colonies directly from a Kunkel mutagenesis (8) reaction could be screened. Kunkel mutagenesis reactions were transformed directly into BL21(DE3)™ (Invitrogen) in order to generate each of the desired mutants. Four colonies from each plated reaction was picked and grown at 37° C. in 0.5 mL of LB-Kanamycin overnight. […]. This culture was grown for 2-3 hours at 37° C., after which 50 μL of 10 mM IPTG was added to each well (0.5 mM Final) in order to induce expression. The cells were then grown for 24 hours at 18° C., harvested, and stored at −20° C. until ready for assaying. To assay, crude cell lysate was prepared by resuspending the cells in 500 uL of PBS and lysing through 3 freeze/thaw cycles (15 minutes at −80° C., 40 minutes at 25° C.), followed by centrifugation at 4000 rpm for 30 minutes. […] Samples from each reaction were then quenched and product detected using a liquid chromatography-tandem mass spectroscopy.\nTo help remove some of this noise, samples showing WT activity were discarded if at least 2 of the other colonies picked from that Kunkel reaction did show an effect on activity (either greater or less than WT). […] The relative effect of each mutation was calculated. […]"}}, "note": "Changes are numbered by the printed parent chain. Names and notes keep the numbering of the source. Where two headings read alike, the source gives them in different places.", "data": [{"molecule": "C=C/C=C/NC(=O)OCc1ccc(C(=O)O)cc1", "note": "[diene, 4-carboxybenzyl trans-1,3-butadiene-1-carbamate]", "values": [{"measurement": "kcat", "setting": "[1]; diene + dienophile reaction", "result": "5.83e-05", "unit": "s⁻¹"}, {"measurement": "a (cooperativity of binding between the two substrates)", "setting": "[1]; diene and dienophile", "result": 1}, {"measurement": "Km", "setting": "[1]; read-out: KM-diene", "result": 960, "unit": "µM"}, {"measurement": "kcat", "setting": "[2]; diene + dienophile reaction", "result": "5.83e-05", "unit": "s⁻¹"}, {"measurement": "a (cooperativity of binding between the two substrates)", "setting": "[2]; diene and dienophile", "result": 1}, {"measurement": "Km", "setting": "[2]; read-out: KM-diene", "result": 1600, "unit": "µM"}, {"measurement": "kcat", "setting": "[3]; diene + dienophile reaction", "result": "2.8e-06 ± 5.6e-07", "unit": "s⁻¹"}, {"measurement": "Km", "setting": "[3]; read-out: KM-diene", "result": "3530 ± 1500", "unit": "µM"}, {"measurement": "kcat", "setting": "[4]; PBS, 20 μM protein, diene + dienophile reaction, error = 95% confidence interval", "result": "0.000678 ± 8.3e-05", "unit": "s⁻¹"}, {"measurement": "Km", "setting": "[4]; PBS, 20 μM protein, error = 95% confidence interval, read-out: KM-diene", "result": "980 ± 200", "unit": "µM"}, {"measurement": "a (cooperativity of binding between the two substrates)", "setting": "[4]; diene and dienophile, >1 indicates negative cooperativity", "result": "1.7 ± 0.7"}, {"measurement": "effective molarity (kcat/kuncat)", "setting": "[4]; diene + dienophile reaction", "result": 100, "unit": "M"}]}, {"molecule": "C=CC(=O)N(C)C", "note": "[dienophile, N,N-dimethylacrylamide]", "values": [{"measurement": "Km", "setting": "[1]; read-out: KM-dienophile", "result": 1700, "unit": "µM"}, {"measurement": "Km", "setting": "[2]; read-out: KM-dienophile", "result": 5900, "unit": "µM"}, {"measurement": "Km", "setting": "[4]; PBS, 20 μM protein, error = 95% confidence interval, read-out: KM-dienophile", "result": "58100 ± 14000", "unit": "µM"}]}, {"molecule": "O=S1(=O)C(Cl)=C(Cl)C(Cl)=C1Cl", "note": "[tetrachlorothiophene dioxide]", "values": [{"measurement": "catalytic proficiency", "setting": "catalytic antibody 1E9", "result": "10^7 M^−1"}, {"measurement": "effective molarity", "setting": "catalytic antibody 1E9", "result": "10^3 M"}]}, {"molecule": "B1", "values": [{"measurement": "activity (in words)", "setting": "[5]", "result": "did not show any measurable activity"}]}, {"molecule": "B2", "values": [{"measurement": "activity versus background reaction (in words)", "setting": "[6]; 25° C., 4% DMSO", "result": "increased activity over the background reaction"}]}, {"molecule": "B3", "values": [{"measurement": "decrease of catalytic activity on mutation of a catalytic residue of DA_20_10", "setting": "[5]", "result": 450, "unit": "fold"}]}, {"molecule": "B4", "values": [{"measurement": "product formed per hour", "setting": "[6]; 0.1 mM diene, 3 mM dienophile, 298K, 20 μM protein", "result": "21.9 nM of product/hour"}, {"measurement": "rate enhancement over DA_20_00 (velocity normalized by velocity of DA_20_00)", "setting": "[6]; 1 mM diene, 10 mM dienophile, 298K, 100 μM protein", "result": 20.5, "unit": "fold"}, {"measurement": "Effect on", "setting": "[7]", "result": 1}]}, {"molecule": "B5", "values": [{"measurement": "decrease of catalytic activity on mutation of a catalytic residue of DA_20_10", "setting": "[5]", "result": 27, "unit": "fold"}]}]}
